In patent US10172830B2, “Pyrazolone compounds having human neutrophil elastase inhibitory properties” (CHIESI FARMACEUTICI S.P.A., priority 2016, dated 2019) one finds IC50 data, which are given here for 18 compounds.

Each structure is given as a SMILES string. pIC50: −log10 of the molar value.

The assay addresses T1, human neutrophil elastase (HNE) (Homo sapiens, UniProt P08246).
T1 construct: purchased Sigma E8140
T1 sequence (P08246 30-247 limits assumed): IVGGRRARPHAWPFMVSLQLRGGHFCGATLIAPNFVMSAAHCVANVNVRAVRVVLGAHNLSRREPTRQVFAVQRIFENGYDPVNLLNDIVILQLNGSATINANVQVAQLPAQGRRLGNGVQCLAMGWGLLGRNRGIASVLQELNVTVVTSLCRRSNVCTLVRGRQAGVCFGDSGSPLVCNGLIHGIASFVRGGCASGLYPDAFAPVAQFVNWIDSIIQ
Kind of assay: HNE enzyme assay (human neutrophil elastase enzyme activity assay). Type of assay: biochemical. The following applies: human leukocyte elastase 0.00072 U/mL; substrate MeOSuc-Ala-Ala-Pro-Val-AMC 100 μM; 25° C. for 30 minutes; at least two separate experiments; read-out: HNE inhibition (HNE enzyme inhibition, IC50 values). A digest of the protocol:
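Human leukocyte elastase (0.00072 U/mL) with 100 μM MeOSuc-AAPV-AMC in Tris/NaCl/CaCl2/Brij-35 buffer, pH 7.5, 1% DMSO, 30 min at 25 °C; stopped with soybean trypsin inhibitor. AMC fluorescence (380/460 nm) as % inhibition of control; IC50 from dose-response curves, ≥2 experiments.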
Consider `Cn1c(-c2ccnn2-c2ccc(C#N)cc2)c(C(=O)NC2CCN(C(=O)C[N+](C)(C)Cc3ccccc3)CC2)c(=O)n1-c1cccc(C(F)(F)F)c1` [Example 43, Benzyl-[2-(4-{[2′-(4-cyano-phenyl)-2-methyl-5-oxo-1-(3-trifluoromethyl-phenyl)-2,5-dihydro-1H,2′H-[3,3′]bipyrazolyl-4-carbonyl]-amino}-piperidin-1-yl)-2-oxo-ethyl]-dimethyl-ammonium bromide], for which the negative-log IC50 (pIC50) (as a rule, −log10 of the IC50, conventionally taken in molar units) is > 9.00. On to `C[C@H](NC(=O)c1c(-c2ccnn2-c2ccc(C#N)cc2)n(C)n(-c2cccc(C(F)(F)F)c2)c1=O)C(=O)N(C)CC[N+](C)(C)C` [Example 44, {2-[((S)-2-{[2′-(4-Cyano-phenyl)-2-methyl-5-oxo-1-(3-trifluoromethyl-phenyl)-2,5-dihydro-1H,2′H-[3,3′]bipyrazolyl-4-carbonyl]-amino}-propionyl)-methyl-amino]-ethyl}-trimethyl-ammonium benzene sulphonate], for which the negative-log IC50 (pIC50) is > 9.00. Then `Cn1c(-c2ccnn2-c2ccc(C#N)cc2)c(C(=O)N[C@H]2CC[C@H](NC(=O)C[N+](C)(C)C)CC2)c(=O)n1-c1cccc(C(F)(F)F)c1` [Example 45, [(Trans-4-{[2′-(4-cyano-phenyl)-2-methyl-5-oxo-1-(3-trifluoromethyl-phenyl)-2,5-dihydro-1H,2′H-[3,3′]bipyrazolyl-4-carbonyl]-amino}-cyclohexylcarbamoyl)-methyl]-trimethyl-ammonium benzene sulphonate], with > 9.00. Then `Cc1cc(C[N+](C)(C)C[C@H]2CC[C@H](NC(=O)c3c(-c4ccnn4-c4ccc(C#N)cc4)n(C)n(-c4cccc(C(F)(F)F)c4)c3=O)CC2)n(C)n1` [Example 46, (Trans-4-{[2′-(4-cyano-phenyl)-2-methyl-5-oxo-1-(3-trifluoromethyl-phenyl)-2,5-dihydro-1H,2′H-[3,3′]bipyrazolyl-4-carbonyl]-amino}-cyclohexylmethyl)-(2,5-dimethyl-2H-pyrazol-3-ylmethyl)-dimethyl-ammonium bromide], with > 9.00.

Turning to `Cc1cc(C[N+](C)(C)C[C@H]2CC[C@H](NC(=O)c3c(-c4ccnn4-c4ccc(C#N)cc4)n(C)n(-c4cccc(C(F)(F)F)c4)c3=O)CC2)no1` [Example 47, (Trans-4-{[2′-(4-cyano-phenyl)-2-methyl-5-oxo-1-(3-trifluoromethyl-phenyl)-2,5-dihydro-1H,2′H-[3,3′]bipyrazolyl-4-carbonyl]-amino}-cyclohexylmethyl)-dimethyl-(5-methyl-isoxazol-3-ylmethyl)-ammonium chloride], the negative-log IC50 (pIC50) was > 9.00. The same measure for `Cn1c(-c2ccnn2-c2ccc(C#N)cc2)c(C(=O)NC(C)(C)c2ncc(C[N+](C)(C)C)o2)c(=O)n1-c1cccc(C(F)(F)F)c1` [Example 48, [2-(1-{[2′-(4-Cyano-phenyl)-2-methyl-5-oxo-1-(3-trifluoromethyl-phenyl)-2,5-dihydro-1H,2′H-[3,3′]bipyrazolyl-4-carbonyl]-amino}-1-methyl-ethyl)-oxazol-5-ylmethyl]-trimethyl-ammonium benzene sulphonate]: > 9.00; for `Cc1cc(C[N+]2(C)CCN(C(=O)[C@H](C)NC(=O)c3c(-c4ccnn4-c4ccc(C#N)cc4)n(C)n(-c4cccc(C(F)(F)F)c4)c3=O)CC2)no1` [Example 49, 4-((S)-2-{[2′-(4-Cyano-phenyl)-2-methyl-5-oxo-1-(3-trifluoromethyl-phenyl)-2,5-dihydro-1H,2′H-[3,3′]bipyrazolyl-4-carbonyl]-amino}-propionyl)-1-methyl-1-(5-methyl-isoxazol-3-ylmethyl)-piperazin-1-ium chloride]: > 9.00; for `Cc1cc(C[N+](C)(C)CC(=O)N2CCC(NC(=O)c3c(-c4ccnn4-c4ccc(C#N)cc4)n(C)n(-c4cccc(C(F)(F)F)c4)c3=O)CC2)no1` [Example 50, [2-(4-{[2′-(4-Cyano-phenyl)-2-methyl-5-oxo-1-(3-trifluoromethyl-phenyl)-2,5-dihydro-1H,2′H-[3,3′]bipyrazolyl-4-carbonyl]-amino}-piperidin-1-yl)-2-oxo-ethyl]-dimethyl-(5-methyl-isoxazol-3-ylmethyl)-ammonium chloride]: > 9.00. Then `Cn1c(-c2ccnn2-c2ccc(C#N)cc2)c(C(=O)N[C@H]2C[C@H](C(=O)NCC[N+](C)(C)C)C2)c(=O)n1-c1cccc(C(F)(F)F)c1` [Example 51, {2-[(Trans-3-{[2′-(4-cyano-phenyl)-2-methyl-5-oxo-1-(3-trifluoromethyl-phenyl)-2,5-dihydro-1H,2′H-[3,3′]bipyrazolyl-4-carbonyl]-amino}-cyclobutanecarbonyl)-amino]-ethyl}-trimethyl-ammonium benzene sulphonate], with > 9.00; and `C[C@H](NC(=O)c1c(-c2ccnn2-c2ccc(C#N)cc2)n(C)n(-c2cccc(C(F)(F)F)c2)c1=O)c1ncc(CC[N+](C)(C)C)o1` [Example 52, {2-[2-((S)-1-{[2′-(4-Cyano-phenyl)-2-methyl-5-oxo-1-(3-trifluoromethyl-phenyl)-2,5-dihydro-1H,2′H-[3,3′]bipyrazolyl-4-carbonyl]-amino}-ethyl)-oxazol-5-yl]-ethyl}-trimethyl-ammonium benzene sulphonate], with 8.00 to 9.00. Then `CC(C)[C@H](NC(=O)c1c(-c2ccnn2-c2ccc(C#N)cc2)n(C)n(-c2cccc(C(F)(F)F)c2)c1=O)c1ncc(C[N+](C)(C)C)o1` [Example 53, [2-((S)-1-{[2′-(4-Cyano-phenyl)-2-methyl-5-oxo-1-(3-trifluoromethyl-phenyl)-2,5-dihydro-1H,2′H-[3,3′]bipyrazolyl-4-carbonyl]-amino}-2-methyl-propyl)-oxazol-5-ylmethyl]-trimethyl-ammonium benzene sulphonate], with > 9.00; and `Cn1c(-c2ccnn2-c2ccc(C#N)cc2)c(C(=O)N[C@H]2CC[C@H](CNC(=O)C[N+](C)(C)C)CC2)c(=O)n1-c1cccc(C(F)(F)F)c1` [Example 54, {[(Trans-4-{[2′-(4-cyano-phenyl)-2-methyl-5-oxo-1-(3-trifluoromethyl-phenyl)-2,5-dihydro-1H,2′H-[3,3′]bipyrazolyl-4-carbonyl]-amino}-cyclohexylmethyl)-carbamoyl]-methyl}-trimethyl-ammonium benzene sulphonate], with > 9.00. Consider `Cn1c(-c2ccnn2-c2ccc(C#N)cc2)c(C(=O)N[C@H]2C[C@H](C(=O)NC3CC[N+](C)(C)CC3)C2)c(=O)n1-c1cccc(C(F)(F)F)c1` [Example 55, 4-[(Trans-3-{[2′-(4-cyano-phenyl)-2-methyl-5-oxo-1-(3-trifluoromethyl-phenyl)-2,5-dihydro-1H,2′H-[3,3′]bipyrazolyl-4-carbonyl]-amino}-cyclobutanecarbonyl)-amino]-1,1-dimethyl-piperidinium benzene sulphonate], for which the negative-log IC50 (pIC50) is > 9.00. Then `C[C@H](NC(=O)c1c(-c2ccnn2-c2ccc(C#N)cc2)n(C)n(-c2cccc(C(F)(F)F)c2)c1=O)C(=O)N(C)C1CC[N+](C)(C)CC1` [Example 56, 4-[((S)-2-{[2′-(4-Cyano-phenyl)-2-methyl-5-oxo-1-(3-trifluoromethyl-phenyl)-2,5-dihydro-1H,2′H-[3,3′]bipyrazolyl-4-carbonyl]-amino}-propionyl)-methyl-amino]-1,1-dimethyl-piperidinium benzene sulphonate], with > 9.00; and `Cn1c(-c2ccnn2-c2ccc(C#N)cc2)c(C(=O)NC2(C(=O)NCC[N+](C)(C)C)CCCC2)c(=O)n1-c1cccc(C(F)(F)F)c1` [Example 57, {2-[(1-{[2′-(4-Cyano-phenyl)-2-methyl-5-oxo-1-(3-trifluoromethyl-phenyl)-2,5-dihydro-1H,2′H-[3,3′]bipyrazolyl-4-carbonyl]-amino}-cyclopentanecarbonyl)-amino]-ethyl}-trimethyl-ammonium benzene sulphonate], with > 9.00; and `Cn1c(-c2ccnn2-c2ccc(C#N)cc2)c(C(=O)N[C@H]2CC[C@H](C(=O)NC3CC[N+](C)(C)CC3)CC2)c(=O)n1-c1cccc(C(F)(F)F)c1` [Example 58, 4-[(4-{[2′-(4-Cyano-phenyl)-2-methyl-5-oxo-1-(3-trifluoromethyl-phenyl)-2,5-dihydro-1H,2′H-[3,3′]bipyrazolyl-4-carbonyl]-amino}-cyclohexanecarbonyl)-amino]-1,1-dimethyl-piperidinium benzene sulphonate], with > 9.00. Turning to `Cn1c(-c2ccnn2-c2ccc(C#N)cc2)c(C(=O)N[C@H]2CC[C@H](C(=O)OC3CC[N+](C)(C)CC3)CC2)c(=O)n1-c1cccc(C(F)(F)F)c1` [Example 59, 4-(Trans-4-{[2′-(4-cyano-phenyl)-2-methyl-5-oxo-1-(3-trifluoromethyl-phenyl)-2,5-dihydro-1H,2′H-[3,3′]bipyrazolyl-4-carbonyl]-amino}-cyclohexanecarbonyloxy)-1,1-dimethyl-piperidinium benzene sulphonate], the negative-log IC50 (pIC50) was > 9.00. Then `Cn1c(-c2ccnn2-c2ccc(C#N)cc2)c(C(=O)N[C@H]2CC[C@H](C(=O)N3CCC([N+](C)(C)C)CC3)CC2)c(=O)n1-c1cccc(C(F)(F)F)c1` [Example 60, [1-(4-{[2′-(4-Cyano-phenyl)-2-methyl-5-oxo-1-(3-trifluoromethyl-phenyl)-2,5-dihydro-1H,2′H-[3,3′]bipyrazolyl-4-carbonyl]-amino}-cyclohexanecarbonyl)-piperidin-4-yl]-trimethyl-ammonium benzene sulphonate], with > 9.00.
